Results: PMC12155096 (International Journal of Molecular Sciences, 2025)
Structures can show the parent of a compound that is named as a salt. Where two headings read alike, the source gives them in different places.

Tests used:
[1] = molecular target: Photinus pyralis (firefly) luciferase (Photinus pyralis, UniProt P08659); test: biochemical; format: biochemical
[2] = molecular target: T1, human CYP2C9 (Homo sapiens, UniProt P11712)
[3] = molecular target: T2, human CYP2C19 (Homo sapiens, UniProt P33261); details: for CYP2C19 Efficacy (in parenthesis): human
T2 sequence (P33261 whole entry): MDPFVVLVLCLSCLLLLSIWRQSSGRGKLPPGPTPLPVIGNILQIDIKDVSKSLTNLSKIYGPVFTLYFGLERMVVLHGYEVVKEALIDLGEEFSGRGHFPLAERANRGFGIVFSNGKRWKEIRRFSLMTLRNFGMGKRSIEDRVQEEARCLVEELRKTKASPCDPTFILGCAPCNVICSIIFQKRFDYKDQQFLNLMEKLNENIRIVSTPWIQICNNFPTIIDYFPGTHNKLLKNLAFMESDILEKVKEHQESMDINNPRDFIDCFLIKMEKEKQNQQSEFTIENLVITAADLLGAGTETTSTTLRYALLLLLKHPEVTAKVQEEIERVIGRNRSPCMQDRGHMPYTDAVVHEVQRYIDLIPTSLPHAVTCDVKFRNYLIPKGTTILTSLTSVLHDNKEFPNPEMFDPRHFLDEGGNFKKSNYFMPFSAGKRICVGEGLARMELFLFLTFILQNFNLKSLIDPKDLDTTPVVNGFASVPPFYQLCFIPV

[4] = molecular target: CYP3A4 (Homo sapiens, UniProt P08684)
CYP3A4, sequence (P08684 whole entry): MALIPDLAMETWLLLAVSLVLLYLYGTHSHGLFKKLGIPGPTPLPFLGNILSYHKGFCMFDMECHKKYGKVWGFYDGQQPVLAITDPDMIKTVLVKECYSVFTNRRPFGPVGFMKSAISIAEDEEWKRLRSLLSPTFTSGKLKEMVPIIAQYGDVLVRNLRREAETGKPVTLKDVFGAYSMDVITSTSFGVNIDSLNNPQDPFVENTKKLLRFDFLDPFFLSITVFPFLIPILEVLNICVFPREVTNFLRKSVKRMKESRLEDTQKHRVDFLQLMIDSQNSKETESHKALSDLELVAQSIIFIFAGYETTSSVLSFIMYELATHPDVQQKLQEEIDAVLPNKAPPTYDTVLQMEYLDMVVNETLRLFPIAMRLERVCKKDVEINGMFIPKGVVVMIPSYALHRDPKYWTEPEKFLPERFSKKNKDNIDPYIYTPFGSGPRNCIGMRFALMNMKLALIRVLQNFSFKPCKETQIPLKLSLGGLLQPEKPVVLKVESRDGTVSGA

[5] = molecular target: T3, human CYP1A2 (Homo sapiens, UniProt P05177); test: biochemical
T3 sequence (P05177 1-516): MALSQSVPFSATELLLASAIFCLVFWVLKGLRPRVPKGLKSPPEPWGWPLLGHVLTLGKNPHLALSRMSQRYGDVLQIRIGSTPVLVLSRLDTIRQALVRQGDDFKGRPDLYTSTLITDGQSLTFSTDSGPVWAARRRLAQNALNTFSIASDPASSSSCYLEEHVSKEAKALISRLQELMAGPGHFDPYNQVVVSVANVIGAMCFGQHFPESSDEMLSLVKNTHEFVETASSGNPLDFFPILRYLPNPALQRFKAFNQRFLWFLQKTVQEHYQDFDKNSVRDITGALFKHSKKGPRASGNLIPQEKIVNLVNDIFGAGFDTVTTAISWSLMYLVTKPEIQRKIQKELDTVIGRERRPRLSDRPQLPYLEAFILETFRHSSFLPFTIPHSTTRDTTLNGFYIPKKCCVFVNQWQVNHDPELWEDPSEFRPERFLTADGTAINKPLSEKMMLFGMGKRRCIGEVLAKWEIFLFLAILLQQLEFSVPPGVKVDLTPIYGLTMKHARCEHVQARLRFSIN

[6] = molecular target: T4, human CYP2D6 (Homo sapiens, UniProt P10635); test: biochemical
T4 sequence (P10635 whole entry): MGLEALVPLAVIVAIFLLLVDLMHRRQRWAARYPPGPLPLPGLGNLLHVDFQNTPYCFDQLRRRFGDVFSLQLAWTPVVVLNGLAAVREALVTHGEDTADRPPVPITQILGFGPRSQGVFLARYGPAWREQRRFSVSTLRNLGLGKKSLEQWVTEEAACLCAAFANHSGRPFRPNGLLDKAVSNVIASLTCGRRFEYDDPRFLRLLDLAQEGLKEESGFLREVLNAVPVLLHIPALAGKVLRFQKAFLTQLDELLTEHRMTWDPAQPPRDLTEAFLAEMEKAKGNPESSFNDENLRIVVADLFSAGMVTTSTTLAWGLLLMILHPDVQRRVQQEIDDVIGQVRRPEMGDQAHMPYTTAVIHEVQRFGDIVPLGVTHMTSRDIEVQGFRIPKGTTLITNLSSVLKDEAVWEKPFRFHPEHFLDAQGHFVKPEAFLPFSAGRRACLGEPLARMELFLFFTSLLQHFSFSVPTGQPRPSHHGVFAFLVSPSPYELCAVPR

[7] = molecular target: T3, human CYP1A2
[8] = molecular target: T2, human CYP2C19; test: biochemical
[9] = molecular target: T1, human CYP2C9; test: biochemical
[10] = molecular target: T4, human CYP2D6; details: human
[11] = CYP1A2 IC50 (half-maximal inhibitory concentration)
[12] = CYP2D6 IC50 (half-maximal inhibitory concentration)
[13] = CYP2C9 IC50 (half-maximal inhibitory concentration)
[14] = CYP2C19 IC50 (half-maximal inhibitory concentration)

T1 sequence (P11712 whole entry): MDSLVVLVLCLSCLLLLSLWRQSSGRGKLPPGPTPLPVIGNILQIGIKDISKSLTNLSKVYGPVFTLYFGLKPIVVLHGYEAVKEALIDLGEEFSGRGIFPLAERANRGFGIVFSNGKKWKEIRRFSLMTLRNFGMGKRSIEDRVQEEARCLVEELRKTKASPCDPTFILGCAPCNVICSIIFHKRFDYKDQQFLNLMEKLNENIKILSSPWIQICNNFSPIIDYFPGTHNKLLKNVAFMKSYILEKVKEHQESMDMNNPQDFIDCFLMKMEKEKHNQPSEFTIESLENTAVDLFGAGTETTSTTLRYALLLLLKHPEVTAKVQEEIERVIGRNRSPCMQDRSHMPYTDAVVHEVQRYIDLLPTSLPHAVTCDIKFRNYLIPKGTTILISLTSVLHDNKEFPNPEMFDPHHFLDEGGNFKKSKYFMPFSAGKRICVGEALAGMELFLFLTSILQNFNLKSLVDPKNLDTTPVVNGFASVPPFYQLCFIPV
Photinus pyralis (firefly) luciferase, sequence (P08659 whole entry): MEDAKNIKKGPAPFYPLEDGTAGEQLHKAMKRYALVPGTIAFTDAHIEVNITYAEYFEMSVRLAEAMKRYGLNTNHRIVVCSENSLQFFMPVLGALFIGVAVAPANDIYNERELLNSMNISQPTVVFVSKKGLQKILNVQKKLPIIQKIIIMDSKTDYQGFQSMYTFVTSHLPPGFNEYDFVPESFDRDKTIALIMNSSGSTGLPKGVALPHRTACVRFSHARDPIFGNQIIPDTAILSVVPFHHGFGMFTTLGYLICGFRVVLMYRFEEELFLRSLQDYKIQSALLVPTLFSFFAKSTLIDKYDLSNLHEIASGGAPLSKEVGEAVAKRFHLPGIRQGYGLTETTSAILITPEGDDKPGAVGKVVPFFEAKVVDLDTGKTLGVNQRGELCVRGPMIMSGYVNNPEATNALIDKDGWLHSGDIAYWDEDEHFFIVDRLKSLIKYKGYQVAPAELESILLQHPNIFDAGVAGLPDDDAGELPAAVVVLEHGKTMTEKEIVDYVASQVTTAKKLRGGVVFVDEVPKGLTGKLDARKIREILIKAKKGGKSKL

CN1CC2c3ccccc3Oc3ccc(Cl)cc3C2C1 (stereo not shown) [Asenapine]
Luciferase IC50 [1]: Inactive | CYP2C9 IC50 [2]: Inactive | CYP2C19 IC50 [3]: Inactive | CYP3A4 IC50 [4]: Inactive | IC50 ([5]; CYP1A2 IC50): 7.55 µM | IC50 ([6]; CYP2D6 IC50): 0.09 µM

CN1CCC(N(Cc2ccccc2)c2ccccc2)CC1 [Bamipine]
Luciferase IC50 [1]: Inactive | CYP1A2 IC50 [7]: Inactive | CYP2C9 IC50 [2]: Inactive | CYP3A4 IC50 [4]: Inactive | IC50 [8]: 36.8 µM | IC50 [6]: 0.38 µM

c1ccc2cc3c(ccc4ccccc43)cc2c1 [Benz(a)anthracene]
IC50 [1]: 6.12 µM | CYP3A4 IC50 [4]: Inactive | IC50 ([5]; CYP1A2 IC50): 0.86 µM | IC50 ([9]; CYP2C9 IC50): 36.4 µM | IC50 ([8]; CYP2C19 IC50): 15.9 µM | IC50 ([6]; CYP2D6 IC50): 50.5 µM

c1ccc2c(c1)c1cccc3ccc4cccc2c4c31 [Benzo(e)pyrene]
Luciferase IC50 [1]: Inactive | CYP2C9 IC50 [2]: Inactive | CYP2C19 IC50 [3]: Inactive | CYP3A4 IC50 [4]: Inactive | IC50 ([5]; CYP1A2 IC50): 0.1 µM | IC50 ([6]; CYP2D6 IC50): 55.4 µM

CN(Cc1cc(Br)cc(Br)c1N)C1CCCCC1 [Bromhexine hydrochloride]
Luciferase IC50 [1]: Inactive | CYP3A4 IC50 [4]: Inactive | IC50 [5]: 28.1 ± 9.38 µM | IC50 [9]: 19.5 ± 6.96 µM | IC50 [8]: 4.36 µM | IC50 [6]: 0.01 ± 0.01 µM

Cc1ccc(Cl)c(OCC(O)CNC(C)(C)C)c1 (stereo not shown) [Bupranolol]
Luciferase IC50 (half-maximal inhibitory concentration) [1]: Inactive | CYP2C9 IC50 (half-maximal inhibitory concentration) [2]: Inactive | CYP2C19 IC50 (half-maximal inhibitory concentration) [3]: Inactive | CYP3A4 IC50 (half-maximal inhibitory concentration) [4]: Inactive | IC50 [5, 11]: 15.5 µM | IC50 [6, 12]: 0.98 µM

CCCCN(CCCC)CCCOC(=O)c1ccc(N)cc1 [Butacaine]
Luciferase IC50 (half-maximal inhibitory concentration) [1]: Inactive | CYP3A4 IC50 (half-maximal inhibitory concentration) [4]: Inactive | IC50 [5, 11]: 22.4 µM | IC50 [9, 13]: 26.4 µM | IC50 [8, 14]: 38.9 µM | IC50 [6, 12]: 0.03 µM

CN(Cc1ccc(C(C)(C)C)cc1)Cc1cccc2ccccc12 [Butenafine]
Luciferase IC50 [1]: Inactive | CYP3A4 IC50 [4]: Inactive | IC50 ([5]; CYP1A2 IC50): 24.6 µM | IC50 ([9]; CYP2C9 IC50): 16.3 µM | IC50 ([8]; CYP2C19 IC50): 9.91 µM | IC50 ([6]; CYP2D6 IC50): 0.39 µM

CN(C)CCCSc1ccccc1NC(=O)/C=C/c1ccccc1 [Cinanserin]
Luciferase IC50 (half-maximal inhibitory concentration) [1]: Inactive | CYP1A2 IC50 (half-maximal inhibitory concentration) [7]: Inactive | CYP2C9 IC50 (half-maximal inhibitory concentration) [2]: Inactive | CYP2C19 Efficacy (in parenthesis) [3]: 29.59 ± 16.13 (-78 ± 38) % | CYP2D6 Efficacy (in parenthesis) [10]: 0.52 ± 0.22 (-96 ± 14) % | CYP3A4 IC50 (half-maximal inhibitory concentration) [4]: Inactive | IC50 [8, 14]: 29.6 µM | IC50 [6, 12]: 0.52 µM

CC(C(O)c1ccccc1)N(C)C/C=C/c1ccccc1 (stereo not shown) [Cinnamedrine]
Luciferase IC50 (half-maximal inhibitory concentration) [1]: Inactive | CYP3A4 IC50 (half-maximal inhibitory concentration) [4]: Inactive | IC50 [5]: 16.4 µM | IC50 [9]: 16.1 µM | IC50 [8]: 1.46 µM | IC50 [6]: 0.11 µM

Clc1ccccc1C(c1ccccc1)(c1ccccc1)n1ccnc1 [Clotrimazole]
Luciferase IC50 (half-maximal inhibitory concentration) [1]: Inactive | CYP1A2 Efficacy (in parenthesis) ([7]; human): 9.92 ± 2.76 (-108 ± 12) % | CYP2C9 Efficacy (in parenthesis) ([2]; human): 1.14 ± 0.44 (-107 ± 6) % | CYP2C19 Efficacy (in parenthesis) [3]: 3.88 ± 0.66 (-140 ± 14) % | CYP2D6 Efficacy (in parenthesis) [10]: 46.25 ± 14.89 (-110 ± 18) % | CYP3A4 Efficacy (in parenthesis) [4]: 0.02 ± 0.01 (-96 ± 6) % | IC50 [9, 13]: 1.14 µM | IC50 [8, 14]: 3.88 µM | IC50 [6, 12]: 46.2 µM

NC(=O)C(c1ccccc1)(c1ccccc1)[C@@H]1CCN(CCc2ccc3c(c2)CCO3)C1 [Darifenacin hydrobromide]
Luciferase IC50 (half-maximal inhibitory concentration) [1]: Inactive | CYP1A2 IC50 (half-maximal inhibitory concentration) [7]: Inactive | CYP2C9 IC50 (half-maximal inhibitory concentration) [2]: Inactive | CYP2C19 IC50 (half-maximal inhibitory concentration) [3]: Inactive | CYP2D6 Efficacy (in parenthesis) [10]: 0.41 ± 0.07 (-99 ± 4) % | CYP3A4 IC50 (half-maximal inhibitory concentration) [4]: Inactive | IC50 [6, 12]: 0.41 µM

CCN(CC)c1c([N+](=O)[O-])cc(C(F)(F)F)c(N)c1[N+](=O)[O-] [Dinitramine]
Luciferase IC50 (half-maximal inhibitory concentration) [1]: Inactive | CYP3A4 IC50 (half-maximal inhibitory concentration) [4]: Inactive | IC50 [5, 11]: 0.3 µM | IC50 [9, 13]: 74.5 µM | IC50 [8, 14]: 19.3 µM | IC50 [6, 12]: 55.8 µM

OC(CCCN1CCCCC1)(c1ccccc1)c1ccccc1 [Diphenidol]
Luciferase IC50 (half-maximal inhibitory concentration) [1]: Inactive | CYP1A2 IC50 (half-maximal inhibitory concentration) [7]: Inactive | CYP2C9 IC50 (half-maximal inhibitory concentration) [2]: Inactive | CYP3A4 IC50 (half-maximal inhibitory concentration) [4]: Inactive | IC50 [8, 14]: 32.7 µM | IC50 [6, 12]: 0.09 µM

c1ccc2c(c1)-c1cccc3cccc-2c13 [Fluoranthene]
IC50 [1]: 62.1 µM | CYP3A4 IC50 [4]: Inactive | IC50 ([5]; CYP1A2 IC50): 0.73 µM | IC50 [9]: 67.8 µM | IC50 ([8]; CYP2C19 IC50): 50.2 µM | IC50 ([6]; CYP2D6 IC50): 21.5 µM

COc1ccc(-c2coc3cc(O)ccc3c2=O)cc1 [Formononetin]
IC50 [1]: 3.18 µM | CYP3A4 IC50 (half-maximal inhibitory concentration) [4]: Inactive | IC50 [5, 11]: 14.4 µM | IC50 [9, 13]: 0.29 µM | IC50 [8, 14]: 62.3 µM | IC50 [6, 12]: 51.6 µM

CC(Cc1ccccc1)N(C)Cc1ccco1 (stereo not shown) [Furfenorex]
Luciferase IC50 [1]: Inactive | CYP1A2 IC50 [7]: Inactive | CYP2C9 IC50 [2]: Inactive | CYP3A4 IC50 [4]: Inactive | IC50 ([8]; CYP2C19 IC50): 6.65 µM | IC50 ([6]; CYP2D6 IC50): 0.85 µM

c1ccc2c(c1)Sc1ccccc1N2CC1CN2CCC1CC2 (stereo not shown) [Mequitazine]
Luciferase IC50 (half-maximal inhibitory concentration) [1]: Inactive | CYP1A2 IC50 (half-maximal inhibitory concentration) [7]: Inactive | CYP2C9 IC50 (half-maximal inhibitory concentration) [2]: Inactive | CYP2C19 IC50 (half-maximal inhibitory concentration) [3]: Inactive | CYP3A4 IC50 (half-maximal inhibitory concentration) [4]: Inactive | IC50 [6, 12]: 0.29 µM

CN1CCCCC1CCN1c2ccccc2Sc2ccc([S+](C)[O-])cc21 (stereo not shown) [Mesoridazine]
Luciferase IC50 (half-maximal inhibitory concentration) [1]: Inactive | CYP1A2 IC50 (half-maximal inhibitory concentration) [7]: Inactive | CYP2C9 IC50 (half-maximal inhibitory concentration) [2]: Inactive | CYP2C19 IC50 (half-maximal inhibitory concentration) [3]: Inactive | CYP3A4 IC50 (half-maximal inhibitory concentration) [4]: Inactive | IC50 [6, 12]: 0.09 µM

CN1CCCC(CC2c3ccccc3Sc3ccccc32)C1 (stereo not shown) [Metixene hydrochloride]
Luciferase IC50 (half-maximal inhibitory concentration) [1]: Inactive | CYP1A2 IC50 (half-maximal inhibitory concentration) [7]: Inactive | CYP2C9 IC50 (half-maximal inhibitory concentration) [2]: Inactive | CYP3A4 IC50 (half-maximal inhibitory concentration) [4]: Inactive | IC50 [8, 14]: 7.76 µM | IC50 [6, 12]: 0.44 µM

CC(COc1ccccc1)N(CCCl)Cc1ccccc1 (stereo not shown) [Phenoxybenzamine hydrochloride]
Luciferase IC50 (half-maximal inhibitory concentration) [1]: Inactive | CYP3A4 IC50 (half-maximal inhibitory concentration) [4]: Inactive | IC50 [5, 11]: 65.8 µM | IC50 [9, 13]: 22.8 µM | IC50 [8, 14]: 2.44 µM | IC50 [6, 12]: 0.38 µM

CC(CN1c2ccccc2Sc2ccccc21)N(C)C (stereo not shown) [Promethazine hydrochloride]
Luciferase IC50 (half-maximal inhibitory concentration) [1]: Inactive | CYP3A4 IC50 (half-maximal inhibitory concentration) [4]: Inactive | IC50 [5, 11]: 2.23 µM | IC50 [8, 14]: 14.5 µM | IC50 [6, 12]: 0.89 µM

Cc1nc2n(c(=O)c1CCN1CCC(C(=O)c3ccc(F)cc3)CC1)CCS2 [Setoperone]
Luciferase IC50 [1]: Inactive | CYP2C19 IC50 [3]: Inactive | CYP3A4 IC50 [4]: Inactive | IC50 [5]: 32.3 ± 4.12 µM | IC50 [9]: 27.2 ± 16.6 µM | IC50 [6]: 0.48 ± 0.08 µM

O=C(CCCN1CCC2(CC1)C(=O)NCN2c1ccccc1)c1ccc(F)cc1 [Spiperone]
Luciferase IC50 [1]: Inactive | CYP1A2 IC50 [7]: Inactive | CYP2C9 IC50 [2]: Inactive | CYP2C19 IC50 [3]: Inactive | CYP3A4 IC50 [4]: Inactive | IC50 ([6]; CYP2D6 IC50, mean ± standard deviation from three experiments): 0.79 ± 0.18 µM

CCCC[N+](CCCC)(CCCC)CCCC [Tetrabutylammonium bromide]
Luciferase IC50 [1]: Inactive | CYP1A2 IC50 [7]: Inactive | CYP2C9 IC50 [2]: Inactive | CYP2C19 IC50 [3]: Inactive | CYP3A4 IC50 [4]: Inactive | IC50 ([6]; CYP2D6 IC50): 0.01 µM

COC1CC(=C(c2cccs2)c2cccs2)C[N+](C)(C)C1 (stereo not shown) [Timepidium bromide]
Luciferase IC50 [1]: Inactive | CYP1A2 IC50 [7]: Inactive | CYP2C9 IC50 [2]: Inactive | CYP2C19 IC50 [3]: Inactive | CYP3A4 IC50 [4]: Inactive | IC50 ([6]; CYP2D6 IC50): 0.29 µM

Oc1cc(Cl)ccc1Oc1ccc(Cl)cc1Cl [Triclosan]
Luciferase IC50 [1]: Inactive | CYP3A4 IC50 [4]: Inactive | IC50 ([5]; CYP1A2 IC50): 20.8 µM | IC50 ([8]; CYP2C19 IC50): 0.71 µM | IC50 ([6]; CYP2D6 IC50): 32.8 µM

CS(=O)(=O)c1ccc(-c2cn3ccccc3n2)cc1 [Zolimidine]
IC50 [1]: 6.95 µM | CYP3A4 IC50 [4]: Inactive | IC50 ([5]; CYP1A2 IC50): 0.7 µM | IC50 ([9]; CYP2C9 IC50): 24.1 µM | IC50 ([8]; CYP2C19 IC50): 25.7 µM | IC50 ([6]; CYP2D6 IC50): 24.2 µM
